Data taken from publication PMC4102417 (PLoS Neglected Tropical Diseases, 2014).
Where a name gives a salt, the structure may show the parent alone. Read-outs that look alike come from different tables or passages of the source.

Tests used:
[1] = test system: T. cruzi (Tulahuen strain); test: microbe, parasite or virus in culture; assay type: cell-based, Trypanosoma cruzi; settings: for activity at 10 µM / EC50: Trypanosoma cruzi, TULAHUEN, Fibroblast; for activity at 10 µM: 120 h, read-out: T. cruzi % growth @ 10 uM (Amastigotes)
Experimental: Compounds were tested against T. cruzi (Tulahuen strain) stably expressing the beta-galactosidase gene as previously described. […] Fibroblasts were plated at a density of 2×10^3 per well in 96 well tissue culture plates. After 24 hours of incubation, 1×10^4 trypomastigotes/well were added to the fibroblasts and incubated for 4 hours before addition of the test compounds from the Spectrum Collection (10 µM final concentration). Cultures were incubated at 37°C for 5 days, then developed with chlorophenol red β-D-galactopyranoside as previously described. The percent inhibition is reported with standard deviation of the mean. […] Z-prime values were calculated for each 96-well plate based on positive (4 wells) and negative controls (4 wells).

[2] = test system: 3T3 fibroblast cells; test: cells; assay type: cell-based, murine; settings: for activity at 10 µM: Mus musculus, NIH3T3, 72 h, read-out: Mammalian (3T3) cell % growth at 10 uM
[3] = Table S2, amastigotes, read-out: T. cruzi EC50

Compound	activity at 10 µM ([1]; 10 uM, Table S2) [%]	activity at 10 µM ([2]; 10 uM, Table S2) [%]	also measured
CC12C=CC(=O)C=C1CCC1C2CCC2(C)C(=O)CCC12 (stereo not drawn) [ANDROSTA-1,4-DIEN-3,17-DIONE, 2,15-dimethyltetracyclo[8.7.0.0^{2,7}.0^{11,15}]heptadeca-3,6-diene-5,14-dione]	25.1	72.1	–
C=C1C2CCC3(C)C(c4ccoc4)OC(=O)CC13OC1CC(OC(C)=O)C(C)(C)C(CC(=O)OC)C12C (stereo not drawn) [methyl 2-[5-(acetyloxy)-13-(furan-3-yl)-6,6,8,12-tetramethyl-17-methylidene-15-oxo-2,14-dioxatetracyclo[7.7.1.0^{1,12}.0^{3,8}]heptadecan-7-yl]acetate]	1	84.1	–
O=c1cc(-c2cc(O)c(O)c(O)c2)oc2cc(O)cc(O)c12 [HIERACIN, 5,7-dihydroxy-2-(3,4,5-trihydroxyphenyl)-4H-chromen-4-one]	6.5	100	–
COC(=O)C1C2CC3c4[nH]c5cc(OC)ccc5c4CCN3CC2CC(OC(=O)c2cc(OC)c(OC)c(OC)c2)C1OC (stereo not drawn) [RESERPINE, methyl 6,18-dimethoxy-17-[(3,4,5-trimethoxyphenyl)carbonyloxy]-3,13-diazapentacyclo[11.8.0.0^{2,10}.0^{4,9}.0^{15,20}]henicosa-2(10),4(9),5,7-tetraene-19-carboxylate]	4	100	EC50 [1, 3]: 5970 nM; EC50 ([1]; read-out: T. cruzi EC50): < 10000 nM
CC1CCC2(NC1)OC1CC3C4CCC5CC(O)CCC5(C)C4CCC3(C)C1C2C (stereo not drawn) [TOMATIDINE, 5',7,9,13-tetramethyl-5-oxaspiro[pentacyclo[10.8.0.0^{2,9}.0^{4,8}.0^{13,18}]icosane-6,2'-piperidine]-16-ol hydrochloride]	8.5	100	–
CC(C)CCCC(C)C1CCC2C3CC(=O)C4CC(O)CCC4(C)C3CCC12C (stereo not drawn) [5alpha-CHOLESTAN-3beta-OL-6-ONE, 5-hydroxy-2,15-dimethyl-14-(6-methylheptan-2-yl)tetracyclo[8.7.0.0^{2,7}.0^{11,15}]heptadecan-8-one]	7.8	100	–
COc1cc(O)c2c(c1)C(=O)c1cc(C)cc(O)c1C2=O [PHYSCION, 1,8-dihydroxy-3-methoxy-6-methyl-9,10-dihydroanthracene-9,10-dione]	9.2	96.8	–
COC(=O)C[C@H]1C(C)(C)[C@@H](O)[C@@H]2CC3=C4CC(O)O[C@@H](c5ccoc5)[C@]4(C)CCC3[C@@]1(C)C2=O (stereo partly drawn) [3,16-DIDEOXYMEXICANOLIDE-3beta-DIOL]	22.1	99.8	–
COC1CC(OC2C(C)C(=O)OC(C)C(C)C(O)C(C)C(=O)C3(CO3)CC(C)C(OC3OC(C)CC(N(C)C)C3O)C2C)OC(C)C1O (stereo not drawn) [OLEANDOMYCIN PHOSPHATE, 14-{[4-(dimethylamino)-3-hydroxy-6-methyloxan-2-yl]oxy}-6-hydroxy-12-[(5-hydroxy-4-methoxy-6-methyloxan-2-yl)oxy]-5,7,8,11,13,15-hexamethyl-1,9-dioxaspiro[2.13]hexadecane-4,10-dione; phosphoric acid]	15.7	100	–
CC(C)CCC[C@@H](C)[C@H]1CC[C@H]2[C@@H]3C(=O)C=C4C[C@@H](O)CC[C@]4(C)[C@H]3CC[C@]12C [7-OXOCHOLESTEROL, (1S,2R,5S,10S,11S,14R,15R)-5-hydroxy-2,15-dimethyl-14-[(2R)-6-methylheptan-2-yl]tetracyclo[8.7.0.0^{2,7}.0^{11,15}]heptadec-7-en-9-one]	23.4	68.5	–
1-methyl-9H-pyrido[3,4-b]indol-7-ol hydrochloride [HARMOL]	–	–	T. cruzi % growth @ 10 uM (Amastigotes) ([1]; 10 uM, Table S2): 4.4%; Mammalian (3T3) cell % growth at 10 uM ([2]; 10 uM, Table S2): 71.4%
CC(=O)[C@H]1CC[C@H]2[C@@H]3CC[C@H]4C[C@@H](O)CC[C@]4(C)[C@H]3CC[C@]12C [ALLOPREGNANOLONE, 1-[(1S,2S,5S,7S,10R,11S,14S,15S)-5-hydroxy-2,15-dimethyltetracyclo[8.7.0.0^{2,7}.0^{11,15}]heptadecan-14-yl]ethan-1-one]	3.7	100	–
CCC(=O)O[C@H]1CC[C@H]2[C@@H]3CCc4cc(O)ccc4[C@H]3CC[C@]12C [ESTRADIOL PROPIONATE, (1S,10R,11S,14S,15S)-5-hydroxy-15-methyltetracyclo[8.7.0.0^{2,7}.0^{11,15}]heptadeca-2,4,6-trien-14-yl propanoate]	20.3	100	–
COC(=O)C1=C(C)NC(C)=C(C(=O)OCCN(C)Cc2ccccc2)C1c1cccc([N+](=O)[O-])c1 (stereo not drawn) [NICARDIPINE, 3-{2-[benzyl(methyl)amino]ethyl} 5-methyl 2,6-dimethyl-4-(3-nitrophenyl)-1,4-dihydropyridine-3,5-dicarboxylate]	2	99.8	EC50 [1, 3]: 5850 nM; EC50 ([1]; read-out: T. cruzi EC50): 5900 nM
CC(C)COCC(CN(Cc1ccccc1)c1ccccc1)N1CCCC1 (stereo not drawn) [BEPRIDIL, N-benzyl-N-[3-(2-methylpropoxy)-2-(pyrrolidin-1-yl)propyl]aniline hydrochloride]	24.4	89.6	–
CC(=O)OC1CCC2(C)C(CC(OC(C)=O)C3(C)C2CCC2(C)C(c4ccoc4)OC(=O)C4OC423)C1(C)C (stereo not drawn) [3beta-ACETOXYDEOXODIHYDROGEDUNIN, 15-(acetyloxy)-7-(furan-3-yl)-1,8,12,16,16-pentamethyl-5-oxo-3,6-dioxapentacyclo[9.8.0.0^{2,4}.0^{2,8}.0^{12,17}]nonadecan-19-yl acetate]	7	96.7	–

Compound	activity at 10 µM ([1]; 10 uM, Table S2) [%]	activity at 10 µM ([2]; 10 uM, Table S2) [%]	also measured
CCCCCC(=O)O[C@]1(C(C)=O)CC[C@H]2C3CCC4=CC(=O)CCC4(C)[C@H]3CCC21C (stereo partly drawn) [HYDROXYPROGESTERONE CAPROATE, (1S,11S,14R)-14-acetyl-2,15-dimethyl-5-oxotetracyclo[8.7.0.0^{2,7}.0^{11,15}]heptadec-6-en-14-yl hexanoate]	1.8	100	EC50 [1, 3]: 10000 nM
CCOc1ccc(C(=O)c2ccc(OC)c(O)c2O)cc1 [2,3-DIHYDROXY-4-METHOXY-4'-ETHOXYBENZOPHENONE]	9.1	95.8	–
CCCCC1C(=O)N(c2ccccc2)N(c2ccc(O)cc2)C1=O (stereo not drawn) [OXYPHENBUTAZONE, 4-butyl-1-(4-hydroxyphenyl)-2-phenylpyrazolidine-3,5-dione]	3.7	72.8	EC50 ([1]; read-out: T. cruzi EC50): 12000 nM
COc1cc2ccc(=O)oc2c(O)c1O [FRAXETIN, 7,8-dihydroxy-6-methoxy-2H-chromen-2-one]	8.1	100	–
COc1c(-c2coc3cc4c(cc3c2=O)CC(OC(C)=O)C(C)(C)O4)ccc2c1C=CC(C)(C)O2 (stereo not drawn) [MUNDULONE ACETATE]	4.6	76	–
COC(=O)c1cc(O)c(=O)c2c(O)c(O)ccc2c1 [methyl 3,4,6-trihydroxy-5-oxo-5H-benzo[7]annulene-8-carboxylate]	18.2	92.2	–
CN1CCN(CCCN2c3ccccc3Sc3ccc(C(F)(F)F)cc32)CC1 [TRIFLUOPERAZINE, 10-[3-(4-methylpiperazin-1-yl)propyl]-2-(trifluoromethyl)-10H-phenothiazine]	20.4	94.7	–
COc1c(C)c2c(c(O)c1CC=C(C)CCC(=O)O)C(=O)OC2 [MYCOPHENOLIC ACID, 6-(4-hydroxy-6-methoxy-7-methyl-3-oxo-1,3-dihydro-2-benzofuran-5-yl)-4-methylhex-4-enoic acid]	12.2	97.2	EC50 [1, 3]: 320 nM
CNCCC=C1c2ccccc2CCc2ccccc21 [NORTRIPTYLINE, methyl(3-{tricyclo[9.4.0.0^{3,8}]pentadeca-1(15),3,5,7,11,13-hexaen-2-ylidene}propyl)amine]	–	–	activity at 10 µM [1]: 9.7%; EC50 ([1]; read-out: T. cruzi EC50 (nM)): 5180 nM; activity at 10 µM [2]: 100%
NCC(=O)c1ccccc1 [PHENACYLAMINE, 2-amino-1-phenylethan-1-one hydrochloride]	4.8	85.5	–
CC12CCC3C(CCC4CC(O)CCC43C)C1CCC2=O (stereo not drawn) [EPIANDROSTERONE, 5-hydroxy-2,15-dimethyltetracyclo[8.7.0.0^{2,7}.0^{11,15}]heptadecan-14-one]	–	–	activity at 10 µM [1]: 18.8%; activity at 10 µM [2]: 100%
CN(C)CCCN1c2ccccc2CCc2ccc(Cl)cc21 [Clomipramine, (3-{5-chloro-2-azatricyclo[9.4.0.0^{3,8}]pentadeca-1(15),3,5,7,11,13-hexaen-2-yl}propyl)dimethylamine hydrochloride]	–	84.6	–
CNCCC(Oc1ccc(C(F)(F)F)cc1)c1ccccc1 (stereo not drawn) [Fluoxetine, methyl({3-phenyl-3-[4-(trifluoromethyl)phenoxy]propyl})amine hydrochloride]	–	100	–
CCCCc1oc2ccccc2c1C(=O)c1cc(I)c(OCCN(CC)CC)c(I)c1 [Amiodarone, (2-{4-[(2-butyl-1-benzofuran-3-yl)carbonyl]-2,6-diiodophenoxy}ethyl)diethylamine hydrochloride]	–	86.7	–
CNC1CCC(c2ccc(Cl)c(Cl)c2)c2ccccc21 (stereo not drawn) [Sertraline, 4-(3,4-dichlorophenyl)-N-methyl-1,2,3,4-tetrahydronaphthalen-1-amine hydrochloride]	–	100	–
